Results on 18 molecules are retold here after patent US20240116909A1, “NOVEL COMPOUNDS USEFUL AS STING AGONISTS AND USES THEREOF” (priority 2021, published 2024).

pIC50: −log10 of the molar value.

Sequence of human STING WT (Q86WV6 whole entry): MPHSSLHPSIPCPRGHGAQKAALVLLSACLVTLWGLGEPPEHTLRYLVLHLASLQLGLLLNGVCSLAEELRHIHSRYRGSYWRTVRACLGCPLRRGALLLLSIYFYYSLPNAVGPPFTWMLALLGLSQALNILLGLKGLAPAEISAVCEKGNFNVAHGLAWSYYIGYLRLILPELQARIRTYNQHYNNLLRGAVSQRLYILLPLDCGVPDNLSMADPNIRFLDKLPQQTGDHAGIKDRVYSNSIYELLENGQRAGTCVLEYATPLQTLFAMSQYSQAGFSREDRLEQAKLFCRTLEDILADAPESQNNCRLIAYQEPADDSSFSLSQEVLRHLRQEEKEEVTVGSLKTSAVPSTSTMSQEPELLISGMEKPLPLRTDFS

For the assay, the target named is human STING WT (Homo sapiens (Human), UniProt Q86WV6). The assay can be described thus: Human STING WT binding assay (Cisbio HTRF). The settings on record: human STING WT protein 6His-tagged, 3 hours at RT, read-out: hSTING WT binding IC50. As for the experimental part:
Cisbio Bioassays' human STING WT binding assay (#64BDSTGPEG & 64BDSTGPEH, Cisbio) is for quantitative measurement of human STING WT ligand using HTRF® technology.
Negative control: Dispense 5 μL of diluent into each negative control well. Standard: Dispense 5 μL of each Human STING WT Standard 2′3′-cGAMP (Std 0-Std 7) into each standard well. Compound: Dispense 5 μL of compound into each compound well.
Negative control: Add 5 μL of detection buffer to all wells. Other wells: Add 5 μL of human STING WT protein 6His-tagged protein to all wells.
Add 10 μL of premixed STING WT ligand d2 reagent and 6His Tb antibody working solution to all wells.
Seal the plate and incubate 3 hours at RT or at Over Night if necessary.
Remove the plate sealer and read on an HTRF® compatible reader (PerkinElmer, USA). Results were analyzed with a two-wavelength signal ratio: intensity (665 nm)/intensity (620 nm).
Fit the data in GraphPad to obtain IC50 values using equation (2)
Y=Bottom+(Top−Bottom)/(1+10^((Log IC50−X)*Hill Slope)) Equation (2): […]
Y is HTRF Ratio and X is compound concentration.
Regarding `COc1cc2sc(C(=O)[C@H]3C[C@@H]3C(=O)O)cc2cc1OCCCOc1c(OC)cc2c(c1F)CN(C(=O)CCC(=O)O)C2` (relative stereo) [Example 21, trans-2-(5-(3-((2-(3-carboxypropanoyl)-4-fluoro-6-methoxyisoindolin-5-yl)oxy)propoxy)-6-methoxybenzo[b]thiophene-2-carbonyl)cyclopropane-1-carboxylic Acid], the pIC50 was 6.80.
The figure for `COc1cc2c(cc1OCCCOc1cc3cc(C(=O)CCC(=O)O)sc3cc1OC)CN(C(=O)CCC(=O)O)C2` [Example 1, 4-(5-(3-((2-(3-carboxypropanoyl)-6-methoxybenzo[b]thiophen-5-yl)oxy)propoxy)-6-methoxyisoindolin-2-yl)-4-oxobutanoic Acid] is 10.22.
To `COc1cc2c(c(Cl)c1OCCCOc1c(OC)cc3sc(C(=O)CCC(=O)O)cc3c1F)CN(C(=O)CCC(=O)O)C2` [Example 2, 4-(5-(3-((2-(3-carboxypropanoyl)-4-chloro-6-methoxyisoindolin-5-yl)oxy)propoxy)-4-fluoro-6-methoxybenzo[b]thiophen-2-yl)-4-oxobutanoic Acid] belongs 7.94; to `COc1cc2c(c(F)c1OCCCOc1c(OC)cc3sc(C(=O)CCC(=O)O)cc3c1Cl)CN(C(=O)CCC(=O)O)C2` [Example 3, 4-(5-(3-((2-(3-carboxypropanoyl)-4-chloro-6-methoxybenzo[b]thiophen-5-yl)oxy)propoxy)-4-fluoro-6-methoxyisoindolin-2-yl)-4-oxobutanoic Acid], 8.08; to `COc1cc2c(c(F)c1OCCCOc1c(OC)cc3sc(C(=O)CCC(=O)O)cc3c1F)CN(C(=O)CCC(=O)O)C2` [Example 4, 4-(5-(3-((2-(3-carboxypropanoyl)-4-fluoro-6-methoxybenzo[b]thiophen-5-yl)oxy)propoxy)-4-fluoro-6-methoxyisoindolin-2-yl)-4-oxobutanoic Acid], 9.74.
`COc1cc2c(cc1OCCCOc1cc3cc(C(=O)C[C@H](C)C(=O)O)sc3cc1OC)CN(C(=O)C[C@H](C)C(=O)O)C2` [Example 5, Sodium (S)-4-(5-(3-((2-((S)-3-carboxylatobutanoyl)-6-methoxybenzo[b]thiophen-5-yl)oxy)propoxy)-6-methoxyisoindolin-2-yl)-2-methyl-4-oxobutanoate]: the pIC50 is 9.49.
The figure for `COc1cc2c(cc1OCCCOc1c(OC)cc3sc(C(=O)C[C@H](C)C(=O)O)cc3c1F)CN(C(=O)C[C@H](C)C(=O)O)C2` [Example 6, Sodium (S)-4-(5-(3-((2-((S)-3-carboxylatobutanoyl)-4-fluoro-6-methoxybenzo[b]thiophen-5-yl)oxy)propoxy)-6-methoxyisoindolin-2-yl)-2-methyl-4-oxobutanoate] is 9.44; for `COc1cc2c(cc1OCCCOc1nc3cc(C(=O)CCC(=O)O)sc3cc1OC)CN(C(=O)CCC(=O)O)C2` [Example 8, Sodium 4-(5-(3-((2-(3-carboxylatopropanoyl)-6-methoxyisoindolin-5-yl)oxy)propoxy)-6-methoxythieno[3,2-b]pyridin-2-yl)-4-oxobutanoate] it is 9.19; for `COc1cc2c(cc1OCCCOc1cc3cc(C(=O)CCC(=O)O)sc3cc1Br)CN(C(=O)CCC(=O)O)C2` [Example 9, 4-(5-(3-((6-bromo-2-(3-carboxypropanoyl)benzo[b]thiophen-5-yl)oxy)propoxy)-6-methoxyisoindolin-2-yl)-4-oxobutanoic Acid] it is 8.65.
Consider `COc1cc2sc(C(=O)CCC(=O)O)cc2cc1OCCCOc1c(OC)cc2c(c1F)CN(C(=O)CCC(=O)O)C2` [Example 10, 4-(5-(3-((2-(3-carboxypropanoyl)-4-fluoro-6-methoxyisoindolin-5-yl)oxy)propoxy)-6-methoxybenzo[b]thiophen-2-yl)-4-oxobutanoic Acid], for which the pIC50 was 9.55.
As for `COc1cc2c(nc1OCCCOc1nc3cc(C(=O)CCC(=O)O)sc3cc1OC)CN(C(=O)CCC(=O)O)C2` [Example 11, 4-(5-(3-((6-(3-carboxypropanoyl)-3-methoxy-6,7-dihydro-5H-pyrrolo[3,4-b]pyridin-2-yl)oxy)propoxy)-6-methoxythieno[3,2-b]pyridin-2-yl)-4-oxobutanoic Acid], the pIC50 was 8.60.
The figure for `COc1cc2sc(C(=O)CCC(=O)O)cc2cc1OCCCOc1c(OC)cc2c(c1Cl)CN(C(=O)CCC(=O)O)C2` [Example 14, 4-(5-(3-((2-(3-carboxypropanoyl)-4-chloro-6-methoxyisoindolin-5-yl)oxy)propoxy)-6-methoxybenzo[b]thiophen-2-yl)-4-oxobutanoic Acid] is 7.33; for `COc1cc2c(cc1OCCCOc1cc3sc(C(=O)CCC(=O)O)cc3nc1OC)CN(C(=O)CCC(=O)O)C2` [Example 15, 4-(5-(3-((2-(3-carboxypropanoyl)-5-methoxythieno[3,2-b]pyridin-6-yl)oxy)propoxy)-6-methoxyisoindolin-2-yl)-4-oxobutanoic Acid] it is 7.03.
To `C=C(COc1c(OC)cc2c(c1Cl)CN(C(=O)CCC(=O)O)C2)COc1c(OC)cc2sc(C(=O)CCC(=O)O)cc2c1F` [Example 16, 4-(5-((2-(((2-(3-carboxypropanoyl)-4-chloro-6-methoxyisoindolin-5-yl)oxy)methyl)allyl)oxy)-4-fluoro-6-methoxybenzo[b]thiophen-2-yl)-4-oxobutanoic Acid] belongs under 6.82.
Turning to `COc1cc2c(c(F)c1OCCCOc1c(OC)cc3sc(C(=O)C[C@H](C)C(=O)O)cc3c1F)CN(C(=O)C[C@H](C)C(=O)O)C2` [Example 17, (S)-4-(5-(3-((2-((S)-3-carboxybutanoyl)-4-fluoro-6-methoxybenzo[b]thiophen-5-yl)oxy)propoxy)-4-fluoro-6-methoxyisoindolin-2-yl)-2-methyl-4-oxobutanoic Acid], the pIC50 is 9.72.
To `COc1cc2c(cc1OCCCOc1cc3cc(C(=O)NCCC(=O)O)sc3cc1OC)CN(C(=O)CCC(=O)O)C2` [Example 18, 4-(5-(3-((2-((2-carboxyethyl)carbamoyl)-6-methoxybenzo[b]thiophen-5-yl)oxy)propoxy)-6-methoxyisoindolin-2-yl)-4-oxobutanoic Acid] belongs 8.34.
As to `C=C(COc1cc2c(cc1OC)CN(C(=O)CCC(=O)O)C2)COc1cc2cc(C(=O)CCC(=O)O)sc2cc1OC` [Example 19, 4-(5-((2-(((2-(3-carboxypropanoyl)-6-methoxybenzo[b]thiophen-5-yl)oxy)methyl)allyl)oxy)-6-methoxyisoindolin-2-yl)-4-oxobutanoic Acid], the pIC50 is 7.26.
The figure for `COc1cc2c(cc1OCCCOc1c(OC)cc3sc(C(=O)CCC(=O)O)cc3c1F)CN(C(=O)CCC(=O)O)C2` [Example 20, 4-(5-(3-((2-(3-carboxypropanoyl)-4-fluoro-6-methoxybenzo[b]thiophen-5-yl)oxy)propoxy)-6-methoxyisoindolin-2-yl)-4-oxobutanoic Acid] is 9.72.
